Reference: ChEMBL document CHEMBL4342498, “Design and Discovery of an Orally Efficacious Spiroindolinone-Based Tankyrase Inhibitor for the Treatment of Colon Cancer” (J Med Chem, 2020)
Activity calls are given as the source filed them. The rule behind the calls is not given here.

Assays:
[1] = molecular target: Poly [ADP-ribose] polymerase 2 (Homo sapiens, UniProt Q9UGN5); assay: Inhibition of human recombinant N-terminal GST-tagged PARP2 (2 to 583 residues) expressed in baculovirus infected Sf9 cells assessed as reduction in auto-PARylation using histone as substrate measured after 45 mins in presence of biotinylated-NAD+ by ELISA
Poly [ADP-ribose] polymerase 2, sequence (Q9UGN5 whole entry, the tested form may be a part): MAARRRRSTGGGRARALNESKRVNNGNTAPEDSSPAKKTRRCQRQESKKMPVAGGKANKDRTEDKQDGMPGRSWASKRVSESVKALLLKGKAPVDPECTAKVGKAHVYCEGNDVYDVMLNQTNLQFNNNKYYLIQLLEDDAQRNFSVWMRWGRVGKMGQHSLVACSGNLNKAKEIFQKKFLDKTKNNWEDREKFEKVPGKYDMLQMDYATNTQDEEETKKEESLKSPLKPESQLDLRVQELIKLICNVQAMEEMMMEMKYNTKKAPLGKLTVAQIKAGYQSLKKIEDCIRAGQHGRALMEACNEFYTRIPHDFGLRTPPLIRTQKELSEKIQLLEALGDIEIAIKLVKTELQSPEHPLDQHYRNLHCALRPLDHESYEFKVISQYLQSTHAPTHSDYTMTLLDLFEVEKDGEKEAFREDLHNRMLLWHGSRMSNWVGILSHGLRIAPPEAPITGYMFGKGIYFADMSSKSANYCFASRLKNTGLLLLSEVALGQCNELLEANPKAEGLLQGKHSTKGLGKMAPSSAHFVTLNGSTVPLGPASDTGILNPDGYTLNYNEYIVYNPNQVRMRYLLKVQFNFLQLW

[2] = molecular target: T1, Protein mono-ADP-ribosyltransferase PARP10 (Homo sapiens, UniProt Q53GL7); assay: Inhibition of human recombinant N-terminal TEV-cleavgae site-fused-FLAG/Polyhis-tagged PARP10 […] expressed in Escherichia coli assessed as reduction in auto-PARylation using histone as substrate measured after 45 mins in presence of biotinylated-NAD+ by ELISA
T1 sequence (Q53GL7 whole entry): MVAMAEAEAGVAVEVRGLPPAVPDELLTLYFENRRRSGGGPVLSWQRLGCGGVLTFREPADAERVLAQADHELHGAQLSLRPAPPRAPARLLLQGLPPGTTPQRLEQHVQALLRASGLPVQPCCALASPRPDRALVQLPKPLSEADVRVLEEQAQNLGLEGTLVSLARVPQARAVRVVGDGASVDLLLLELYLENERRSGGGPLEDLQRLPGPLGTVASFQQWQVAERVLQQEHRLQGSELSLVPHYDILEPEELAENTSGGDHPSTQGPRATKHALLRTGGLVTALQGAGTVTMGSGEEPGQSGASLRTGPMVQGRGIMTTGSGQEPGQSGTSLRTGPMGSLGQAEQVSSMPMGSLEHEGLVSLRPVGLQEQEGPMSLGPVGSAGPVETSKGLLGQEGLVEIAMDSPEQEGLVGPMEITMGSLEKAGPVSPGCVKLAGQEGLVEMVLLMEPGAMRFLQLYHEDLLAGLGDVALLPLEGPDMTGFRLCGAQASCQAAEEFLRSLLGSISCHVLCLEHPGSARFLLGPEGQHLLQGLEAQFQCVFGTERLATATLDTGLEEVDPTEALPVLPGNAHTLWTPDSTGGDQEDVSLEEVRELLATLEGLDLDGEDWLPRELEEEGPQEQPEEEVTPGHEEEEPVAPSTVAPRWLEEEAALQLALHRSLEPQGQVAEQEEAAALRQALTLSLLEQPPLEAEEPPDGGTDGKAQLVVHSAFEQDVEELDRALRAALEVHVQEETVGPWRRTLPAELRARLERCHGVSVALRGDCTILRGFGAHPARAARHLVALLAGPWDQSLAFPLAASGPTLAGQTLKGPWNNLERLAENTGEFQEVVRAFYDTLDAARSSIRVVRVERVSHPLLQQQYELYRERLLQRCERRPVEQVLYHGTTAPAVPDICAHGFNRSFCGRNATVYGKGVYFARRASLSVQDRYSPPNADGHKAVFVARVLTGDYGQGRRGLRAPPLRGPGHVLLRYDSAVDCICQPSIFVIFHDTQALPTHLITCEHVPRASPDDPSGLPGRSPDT

RKO = assay: Antiproliferative activity against human RKO cells assessed inhibition of cell growth measured after 5 days by MTT assay; assay type: functional; details: 120 h
[3] = molecular target: Tankyrase 1/2 (Homo sapiens) (UniProt Q9H2K2+O95271); assay: Inhibition of TNKS/TNKS2-mediated WNT/beta-catenin signaling pathway in human COLO320DM cells assessed as upregulation of AXIN2 expression at 0.1 uM measured after 16 hrs by Western blot analysis relative to control; assay type: cell-based
Tankyrase 1/2 (Homo sapiens), sequence (O95271 whole entry, looked up): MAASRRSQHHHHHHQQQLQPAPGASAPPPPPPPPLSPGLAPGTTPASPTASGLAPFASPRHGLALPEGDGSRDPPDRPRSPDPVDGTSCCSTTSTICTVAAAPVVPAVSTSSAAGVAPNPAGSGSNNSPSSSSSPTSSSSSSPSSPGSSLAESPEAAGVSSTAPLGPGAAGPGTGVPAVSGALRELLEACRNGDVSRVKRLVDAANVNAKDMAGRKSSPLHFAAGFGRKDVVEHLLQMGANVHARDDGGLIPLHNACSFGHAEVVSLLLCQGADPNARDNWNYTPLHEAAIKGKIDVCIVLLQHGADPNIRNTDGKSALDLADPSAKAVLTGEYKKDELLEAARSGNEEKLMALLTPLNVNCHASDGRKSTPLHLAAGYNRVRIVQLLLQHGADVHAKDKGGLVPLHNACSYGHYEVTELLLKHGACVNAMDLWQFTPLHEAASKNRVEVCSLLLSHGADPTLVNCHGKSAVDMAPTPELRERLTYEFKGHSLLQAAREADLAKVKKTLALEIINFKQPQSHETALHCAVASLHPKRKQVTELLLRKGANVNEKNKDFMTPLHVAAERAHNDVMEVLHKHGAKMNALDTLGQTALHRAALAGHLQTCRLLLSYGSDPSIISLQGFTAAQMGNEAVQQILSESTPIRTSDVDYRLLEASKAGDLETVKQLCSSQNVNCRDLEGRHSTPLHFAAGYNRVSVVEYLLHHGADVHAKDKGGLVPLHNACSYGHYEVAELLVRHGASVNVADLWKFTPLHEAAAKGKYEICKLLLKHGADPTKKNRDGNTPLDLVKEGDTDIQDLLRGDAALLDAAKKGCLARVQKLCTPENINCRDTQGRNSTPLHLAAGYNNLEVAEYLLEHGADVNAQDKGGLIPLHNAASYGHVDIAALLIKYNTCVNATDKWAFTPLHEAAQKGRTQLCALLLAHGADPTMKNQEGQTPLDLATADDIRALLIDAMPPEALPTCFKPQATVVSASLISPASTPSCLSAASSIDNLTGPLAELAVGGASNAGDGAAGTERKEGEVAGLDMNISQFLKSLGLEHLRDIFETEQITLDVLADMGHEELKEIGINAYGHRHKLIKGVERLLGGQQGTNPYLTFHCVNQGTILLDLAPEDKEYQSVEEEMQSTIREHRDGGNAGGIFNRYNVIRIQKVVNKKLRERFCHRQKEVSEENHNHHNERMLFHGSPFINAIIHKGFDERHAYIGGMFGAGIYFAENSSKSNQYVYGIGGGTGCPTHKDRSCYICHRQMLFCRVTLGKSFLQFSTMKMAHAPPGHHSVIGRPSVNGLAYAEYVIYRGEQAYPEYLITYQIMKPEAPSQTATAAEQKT
Tankyrase 1/2 (Homo sapiens), sequence (Q9H2K2 whole entry, looked up): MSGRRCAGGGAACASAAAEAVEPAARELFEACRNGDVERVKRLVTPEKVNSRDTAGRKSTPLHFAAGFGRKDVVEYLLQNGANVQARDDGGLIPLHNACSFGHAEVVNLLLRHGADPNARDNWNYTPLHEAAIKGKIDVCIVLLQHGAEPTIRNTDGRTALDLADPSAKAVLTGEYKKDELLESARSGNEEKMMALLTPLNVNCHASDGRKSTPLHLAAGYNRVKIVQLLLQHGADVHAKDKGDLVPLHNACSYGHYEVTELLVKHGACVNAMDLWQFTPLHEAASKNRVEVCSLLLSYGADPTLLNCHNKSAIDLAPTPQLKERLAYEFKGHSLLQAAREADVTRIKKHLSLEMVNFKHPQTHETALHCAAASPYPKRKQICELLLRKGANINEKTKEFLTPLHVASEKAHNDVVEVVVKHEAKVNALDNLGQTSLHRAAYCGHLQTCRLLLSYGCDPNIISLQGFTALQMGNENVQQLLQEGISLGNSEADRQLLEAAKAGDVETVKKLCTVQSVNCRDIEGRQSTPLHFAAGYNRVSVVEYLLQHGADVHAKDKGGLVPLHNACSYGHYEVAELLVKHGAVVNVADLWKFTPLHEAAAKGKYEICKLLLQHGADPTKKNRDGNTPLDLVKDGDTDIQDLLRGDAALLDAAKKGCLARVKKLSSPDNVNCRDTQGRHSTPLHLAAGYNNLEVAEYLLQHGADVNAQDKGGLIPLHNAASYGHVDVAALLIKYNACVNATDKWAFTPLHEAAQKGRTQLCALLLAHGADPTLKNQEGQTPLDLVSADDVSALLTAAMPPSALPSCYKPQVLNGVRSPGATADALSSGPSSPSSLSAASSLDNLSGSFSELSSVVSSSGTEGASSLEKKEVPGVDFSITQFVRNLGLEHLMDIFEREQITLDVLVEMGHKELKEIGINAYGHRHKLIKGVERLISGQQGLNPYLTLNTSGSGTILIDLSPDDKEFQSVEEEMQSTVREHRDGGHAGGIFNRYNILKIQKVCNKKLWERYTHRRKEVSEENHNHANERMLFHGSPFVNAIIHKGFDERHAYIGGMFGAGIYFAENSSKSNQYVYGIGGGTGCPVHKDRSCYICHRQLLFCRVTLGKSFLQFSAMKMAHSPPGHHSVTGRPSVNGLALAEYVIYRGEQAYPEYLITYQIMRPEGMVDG

Cytochrome P450 2C19 = Cytochrome P450 2C19 (Homo sapiens, UniProt P33261); assay: Inhibition of CYP2C19 in human liver microsomes using (S)-mephenytoin as substrate preincubated for 5 mins followed by NADPH addition and measured for 10 to 30 mins by LC-MS/MS analysis; assay type: ADME
Cytochrome P450 2C19, sequence (P33261 whole entry): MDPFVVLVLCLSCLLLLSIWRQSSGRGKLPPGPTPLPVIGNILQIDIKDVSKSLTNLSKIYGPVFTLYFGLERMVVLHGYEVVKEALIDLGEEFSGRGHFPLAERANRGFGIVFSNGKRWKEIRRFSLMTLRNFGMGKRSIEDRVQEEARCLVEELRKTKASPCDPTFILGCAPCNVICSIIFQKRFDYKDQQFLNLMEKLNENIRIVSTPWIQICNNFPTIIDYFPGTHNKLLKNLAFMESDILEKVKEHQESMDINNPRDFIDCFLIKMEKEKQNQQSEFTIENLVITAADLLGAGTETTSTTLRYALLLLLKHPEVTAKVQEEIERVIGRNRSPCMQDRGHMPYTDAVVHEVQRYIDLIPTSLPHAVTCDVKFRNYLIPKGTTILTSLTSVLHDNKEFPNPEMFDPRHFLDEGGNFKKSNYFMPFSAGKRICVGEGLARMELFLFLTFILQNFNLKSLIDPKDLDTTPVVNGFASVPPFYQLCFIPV

Mus musculus = assay: In vivo inhibition of TNSK/TNSK2-medited WNT/beta-catenin signaling in human COLO320DM cells xenografted Prkdc-NOD-SCID CB17 mouse assessed as reduction in active-beta catenin expression in tumor nuclear extract at 10 to 20 mg/kg, po administered twice daily for 5 days followed by 2 days interval for 2 cycles measured 4 hrs post-last dose by Western blot analysis; assay type: functional, organism-based

IC50 [1]: 1.24 µM
IC50 [2]: 8.05 µM
fold change (FC) [3]: 5.23
IC50 (Cytochrome P450 2C19): > 10 µM
Structure (SMILES): C[C@@H]1CN(c2cc(F)c3c(c2)N(C)C(=O)C32CCN(c3nc4c(c(=O)[nH]3)CCCN4C)CC2)C[C@H](C)O1
GI50 (RKO): > 10 µM
inhibition (Mus musculus): Active
